Measured values from patent US20050008715A1, “Method for preventing fungal growth in plants” (priority 2003, published 2005).
Marks after values point to notes of the source that are not given here.

How the values were obtained:
Type in all cases: cell-based
Pythium aphanidermatum = assay: Mycelial growth from inoculum plugs in amended basal nutrient solution; details: 48 hours
Method: (§1) The efficacy of the garlic extract was tested against […] soil-borne fungi that cause root and lower stem rots of plants. The fungal pathogens included: Pythium aphanidermatum, Pythium irregular, Pythium ultimum, Phytophthora capsici, Phytophthora cinnamomi, Phytophthora nicotiana, Rhizoctonia solani, Fusarium oxysporum f.sp. lycopersici, Fusarium oxysporum f.sp. spinaciae, and Thielaviopsis basicola. All isolates used in this investigation were known to be pathogenic to various cultivated plant species.
(§2) All isolates of Pythium aphanidermatum, Pythium irregular, Pythum ultimum, Phytophthora capsici, Phytophthora cinnamomi, Phytophthora nicotiana, Rhizoctonia solani, Fusarium oxysporum f.sp. lycopersici, Fusarium oxysporum f.sp. spinaciae were grown on standard corn meal agar (CMA) for 8 to 9 days. Plugs from inoculum plates were taken using a #4 cork borer (5 mm diameter). Inoculum plugs were placed into 5-cm sterile plastic petri dishes containing 10 ml of a basal nutrient solution that consisted of 60% (v/v) clarified V-8 juice and sterile distilled water (SDW). Basal nutrient solutions were amended with the appropriate treatments. Treatments included SDW (non-treated control), a fungicidal agent appropriate to each species (metylaxyl for the Pythium and Phytophthora species, PCNB for Rhizoctonia, and Allegiance(r) for Fusarium), or 10%, 15%, 20%, 25%, or 30% (v/v) garlic extract. Cultures were placed into a growth chamber and maintained in the dark at 22(C(1(C. After 48 hours, mycelial growth (if any was visible) from culture plugs was measured.

Phytophthora cinnamomi = assay: as above; details: 48 hours
Method: as §1, §2

Phytophthora capsici = assay: as above; details: 48 hours
Method: as §1, §2

Pythium irregular = assay: as above; details: 48 hours
Method: as §1, §2

Phytophthora nicotiana = assay: as above; details: 48 hours
Method: as §1, §2

Pythium ultimum = assay: as above; details: 48 hours
Method: as §1, §2

[1] = system: Pythium and Phytophthora species; assay: Mycelial growth in amended basal nutrient solution; details: basal nutrient solution amended with metalaxyl
Method: as §1
as §2, with “Treatments included SDW (non-treated control), a fungicidal agent appropriate to each species (metylaxyl for the Pythium and Phytophthora species, PCNB for Rhizoctonia, and Allegiance(r) for Fusarium), or 10%, 15%, 20%, 25%, or 30% (v/v) garlic extract.” left out

Rhizoctonia solani = assay: Mycelial growth from inoculum plugs in amended basal nutrient solution; details: for Growth of Rhizoctonia on amended basal nutrient solution: PCNB
Method: as §1, §2

[2] = Fungicide control (Metylaxyl) in basal nutrient solution
[3] = Fungicide control (Metylaxyl), from edge of inoculum plug

Row | Compound | Plates with visible mycelial growth (%) (Pythium aphanidermatum; [2]) | Measured growth (cm) (Pythium aphanidermatum; [3]) | Plates with visible mycelial growth (%) (Phytophthora cinnamomi; [2]) | Measured growth (cm) (Phytophthora cinnamomi; [3]) | Plates with visible mycelial growth (%) (Phytophthora capsici; [2]) | Measured growth (cm) (Phytophthora capsici; [3]) | Plates with visible mycelial growth (%) (Pythium irregular; [2]) | Measured growth (cm) (Pythium irregular; [3]) | Plates with visible mycelial growth (%) (Phytophthora nicotiana; [2]) | Measured growth (cm) (Phytophthora nicotiana; [3]) | Plates with visible mycelial growth (%) (Pythium ultimum; [2]) | Measured growth (cm) (Pythium ultimum; [3]) | Pythium and Phytophthora species that grew from the inoculum plugs [1] | Plates with visible mycelial growth (%) (Rhizoctonia solani; Fungicide control (PCNB) in basal nutrient solution, 48 hours) | Measured growth (cm) (Rhizoctonia solani; Fungicide control (PCNB), 48 hours, from edge of inoculum plug) | Growth of Rhizoctonia on amended basal nutrient solution (Rhizoctonia solani; first replication, inappropriate PCNB concentration) | Growth of Rhizoctonia on amended basal nutrient solution (Rhizoctonia solani; second replication)
1 | COCC(=O)N(c1c(C)cccc1C)C(C)C(=O)OC (centres unmarked) [Metylaxyl] | 0% | 0 cm | 0% | 0 cm | 0% | 0 cm | 0% | 0 cm | 0% | 0 cm | 0% | 0 cm | none | – | – | – | –
2 | O=[N+]([O-])c1c(Cl)c(Cl)c(Cl)c(Cl)c1Cl [PCNB] | – | – | – | – | – | – | – | – | – | – | – | – | – | 50^x % | 0.3 cm | limited amount of growth | did not grow
